Reference: patent US11571411B2, “Use of a bisamide derivative of malonic acid for treating allergic and other diseases in humans and animals” (PHARMENTERPRISES ALLERGY LLC, priority 2018, dated 2023)

Test system: histamine-induced nasal congestion model
Assay: Histamine-induced nasal congestion model in dogs, oral administration
Format: in vivo, Beagle dogs
Procedure: A histamine-induced nasal congestion model in dogs was performed according to the standard procedure [Tiniakov R. L., Tiniakova O. P., McLeod R. L., Hey J. A., Yeates D. B. Canine model of nasal congestion and allergic rhinitis//J Appl Physiol. 2003. V.94(5). P.1821-1828]. Beagle dogs were injected in the nasal cavity with a 5% histamine solution in a volume of 250 μl/nostril. The volume of the nasal cavity of the right and left nostrils was measured using a rhinometer before and 5, 10, 15, 20, 30, 40, 50 and 60 minutes after administration of histamine. Three experiments were performed, in which Compound I was administered orally once at different times: 1) 30 minutes before administration of histamine; 2) 1 hour before administration of histamine; and 3) 6 hours before administration of histamine, and one experiment was performed, in which Compound I was administered orally once daily for 14 days, the last administration was carried out 1 hour before administration of histamine.

[1] = oral 6 hours before histamine, 0.54 mg/kg, 40 minutes after histamine
[2] = oral 6 hours before histamine, 0.54 mg/kg, 50 minutes after histamine
[3] = oral 6 hours before histamine, 0.54 mg/kg, 60 minutes after histamine
[4] = oral 6 hours before histamine, 0.54 mg/kg, before histamine administration
[5] = oral for 14 days, 0.13 mg/kg, 5 minutes after histamine
[6] = oral for 14 days, 0.13 mg/kg, 10 minutes after histamine
[7] = oral for 14 days, 0.13 mg/kg, 15 minutes after histamine
[8] = oral for 14 days, 0.13 mg/kg, 20 minutes after histamine
[9] = oral for 14 days, 0.13 mg/kg, 30 minutes after histamine
[10] = oral for 14 days, 0.13 mg/kg, 40 minutes after histamine
[11] = oral for 14 days, 0.13 mg/kg, before histamine administration
[12] = oral for 14 days, 0.27 mg/kg, 5 minutes after histamine
[13] = oral for 14 days, 0.27 mg/kg, 10 minutes after histamine
[14] = oral for 14 days, 0.27 mg/kg, 15 minutes after histamine
[15] = oral for 14 days, 0.27 mg/kg, 20 minutes after histamine
[16] = oral for 14 days, 0.27 mg/kg, 30 minutes after histamine
[17] = oral for 14 days, 0.27 mg/kg, 40 minutes after histamine
[18] = oral for 14 days, 0.27 mg/kg, before histamine administration
[19] = oral for 14 days, 0.54 mg/kg, 5 minutes after histamine
[20] = oral for 14 days, 0.54 mg/kg, 10 minutes after histamine
[21] = oral for 14 days, 0.54 mg/kg, 15 minutes after histamine
[22] = oral for 14 days, 0.54 mg/kg, 20 minutes after histamine
[23] = oral for 14 days, 0.54 mg/kg, before histamine administration
[24] = oral once 30 minutes before histamine, 0.005 mg/kg, 5 minutes after histamine
[25] = oral once 30 minutes before histamine, 0.005 mg/kg, 10 minutes after histamine
[26] = oral once 30 minutes before histamine, 0.005 mg/kg, 15 minutes after histamine
[27] = oral once 30 minutes before histamine, 0.005 mg/kg, 20 minutes after histamine
[28] = oral once 30 minutes before histamine, 0.005 mg/kg, 30 minutes after histamine
[29] = oral once 30 minutes before histamine, 0.005 mg/kg, 40 minutes after histamine
[30] = oral once 30 minutes before histamine, 0.005 mg/kg, 50 minutes after histamine
[31] = oral once 30 minutes before histamine, 0.005 mg/kg, 60 minutes after histamine
[32] = oral once 30 minutes before histamine, 0.005 mg/kg, before histamine administration
[33] = oral once 30 minutes before histamine, 0.05 mg/kg, 5 minutes after histamine
[34] = oral once 30 minutes before histamine, 0.05 mg/kg, 10 minutes after histamine
[35] = oral once 30 minutes before histamine, 0.05 mg/kg, 15 minutes after histamine
[36] = oral once 30 minutes before histamine, 0.05 mg/kg, 20 minutes after histamine
[37] = oral once 30 minutes before histamine, 0.05 mg/kg, 30 minutes after histamine
[38] = oral once 30 minutes before histamine, 0.05 mg/kg, 40 minutes after histamine
[39] = oral once 30 minutes before histamine, 0.05 mg/kg, 50 minutes after histamine
[40] = oral once 30 minutes before histamine, 0.05 mg/kg, 60 minutes after histamine
[41] = oral once 30 minutes before histamine, 0.05 mg/kg, before histamine administration
[42] = oral once 30 minutes before histamine, 0.54 mg/kg, 5 minutes after histamine
[43] = oral once 30 minutes before histamine, 0.54 mg/kg, 10 minutes after histamine
[44] = oral once 30 minutes before histamine, 0.54 mg/kg, 15 minutes after histamine
[45] = oral once 30 minutes before histamine, 0.54 mg/kg, 20 minutes after histamine
[46] = oral once 30 minutes before histamine, 0.54 mg/kg, 30 minutes after histamine
[47] = oral once 30 minutes before histamine, 0.54 mg/kg, 40 minutes after histamine
[48] = oral once 30 minutes before histamine, 0.54 mg/kg, 50 minutes after histamine
[49] = oral once 30 minutes before histamine, 0.54 mg/kg, 60 minutes after histamine
[50] = oral once 30 minutes before histamine, 0.54 mg/kg, before histamine administration

O=C(CC(=O)NCCc1cnc[nH]1)NCCc1cnc[nH]1 [Compound I, N,N′-bis(2-(1H-imidazol-5-yl)ethyl)malonamide]
Volume of the nasal cavity, left nostril [1]: 3.5 ± 0.1$ cm^3
Volume of the nasal cavity, right nostril [1]: 3.5 ± 0.1$ cm^3
Volume of the nasal cavity, left nostril [2]: 2.9 ± 0.1$ cm^3
Volume of the nasal cavity, right nostril [2]: 2.9 ± 0.2$ cm^3
Volume of the nasal cavity, left nostril [3]: 2.9 ± 0.1$ cm^3
Volume of the nasal cavity, right nostril [3]: 3.0 ± 0.1$ cm^3
Volume of the nasal cavity, left nostril [4]: 4.1 ± 0.2 cm^3
Volume of the nasal cavity, right nostril [4]: 4.1 ± 0.2 cm^3
Volume of the nasal cavity, left nostril [5]: 2.7 ± 0.2$ cm^3
Volume of the nasal cavity, right nostril [5]: 2.7 ± 0.2$ cm^3
Volume of the nasal cavity, left nostril [6]: 3.2 ± 0.2*$ cm^3
Volume of the nasal cavity, right nostril [6]: 3.3 ± 0.2*$ cm^3
Volume of the nasal cavity, left nostril [7]: 2.5 ± 0.2*$ cm^3
Volume of the nasal cavity, right nostril [7]: 2.5 ± 0.1*$ cm^3
Volume of the nasal cavity, left nostril [8]: 2.4 ± 0.2*$ cm^3
Volume of the nasal cavity, right nostril [8]: 2.4 ± 0.2*$ cm^3
Volume of the nasal cavity, left nostril [9]: 3.2 ± 0.2*$ cm^3
Volume of the nasal cavity, right nostril [9]: 3.2 ± 0.2*$ cm^3
Volume of the nasal cavity, left nostril [10]: 3.6 ± 0.2*$ cm^3
Volume of the nasal cavity, right nostril [10]: 3.6 ± 0.2$ cm^3
Volume of the nasal cavity, left nostril [11]: 4.5 ± 0.1 cm^3
Volume of the nasal cavity, right nostril [11]: 4.5 ± 0.1 cm^3
Volume of the nasal cavity, left nostril [12]: 2.8 ± 0.2$ cm^3
Volume of the nasal cavity, right nostril [12]: 2.7 ± 0.2$ cm^3
Volume of the nasal cavity, left nostril [13]: 3.6 ± 0.2*$ cm^3
Volume of the nasal cavity, right nostril [13]: 3.6 ± 0.2*$ cm^3
Volume of the nasal cavity, left nostril [14]: 2.8 ± 0.3*$ cm^3
Volume of the nasal cavity, right nostril [14]: 2.8 ± 0.2*$ cm^3
Volume of the nasal cavity, left nostril [15]: 2.7 ± 0.1*$ cm^3
Volume of the nasal cavity, right nostril [15]: 2.7 ± 0.2*$ cm^3
Volume of the nasal cavity, left nostril [16]: 3.3 ± 0.2*$ cm^3
Volume of the nasal cavity, right nostril [16]: 3.3 ± 0.1*$ cm^3
Volume of the nasal cavity, left nostril [17]: 3.8 ± 0.2*$ cm^3
Volume of the nasal cavity, right nostril [17]: 3.8 ± 0.2*$ cm^3
Volume of the nasal cavity, left nostril [18]: 4.5 ± 0.2 cm^3
Volume of the nasal cavity, right nostril [18]: 4.5 ± 0.1 cm^3
Volume of the nasal cavity, left nostril [19]: 3.1 ± 0.3$ cm^3
Volume of the nasal cavity, right nostril [19]: 2.7 ± 0.2$ cm^3
Volume of the nasal cavity, left nostril [20]: 3.4 ± 0.2*$ cm^3
Volume of the nasal cavity, right nostril [20]: 3.4 ± 0.1*$ cm^3
Volume of the nasal cavity, left nostril [21]: 2.6 ± 0.1*$ cm^3
Volume of the nasal cavity, right nostril [21]: 2.6 ± 0.1*$ cm^3
Volume of the nasal cavity, left nostril [22]: 2.5 ± 0.2*$ cm^3
Volume of the nasal cavity, right nostril [22]: 2.5 ± 0.2*$ cm^3
Volume of the nasal cavity, left nostril [23]: 4.4 ± 0.1 cm^3
Volume of the nasal cavity, right nostril [23]: 4.5 ± 0.1 cm^3
Volume of the nasal cavity, left nostril [24]: 3.5 ± 0.2$ cm^3
Volume of the nasal cavity, right nostril [24]: 3.4 ± 0.1$ cm^3
Volume of the nasal cavity, left nostril [25]: 2.6 ± 0.2$ cm^3
Volume of the nasal cavity, right nostril [25]: 2.5 ± 0.2$ cm^3
Volume of the nasal cavity, left nostril [26]: 2.2 ± 0.2$^ cm^3
Volume of the nasal cavity, right nostril [26]: 2.1 ± 0.2$^ cm^3
Volume of the nasal cavity, left nostril [27]: 1.9 ± 0.3 cm^3
Volume of the nasal cavity, right nostril [27]: 2.0 ± 0.2$^ cm^3
Volume of the nasal cavity, left nostril [28]: 2.5 ± 0.1&$ cm^3
Volume of the nasal cavity, right nostril [28]: 2.8 ± 0.2&$ cm^3
Volume of the nasal cavity, left nostril [29]: 3.9 ± 0.1& cm^3
Volume of the nasal cavity, right nostril [29]: 3.8 ± 0.2& cm^3
Volume of the nasal cavity, left nostril [30]: 3.9 ± 0.1& cm^3
Volume of the nasal cavity, right nostril [30]: 4.0 ± 0.2& cm^3
Volume of the nasal cavity, left nostril [31]: 4.0 ± 0.1 cm^3
Volume of the nasal cavity, right nostril [31]: 3.5 ± 0.1$ cm^3
Volume of the nasal cavity, left nostril [32]: 4.3 ± 0.3 cm^3
Volume of the nasal cavity, right nostril [32]: 4.6 ± 0.3 cm^3
Volume of the nasal cavity, left nostril [33]: 3.4 ± 0.1$ cm^3
Volume of the nasal cavity, right nostril [33]: 3.3 ± 0.2$ cm^3
Volume of the nasal cavity, left nostril [34]: 2.5 ± 0.1$ cm^3
Volume of the nasal cavity, right nostril [34]: 2.4 ± 0.2$ cm^3
Volume of the nasal cavity, left nostril [35]: 2.8 ± 0.1&$ cm^3
Volume of the nasal cavity, right nostril [35]: 2.6 ± 0.2&$ cm^3
Volume of the nasal cavity, left nostril [36]: 3.3 ± 0.1&$ cm^3
Volume of the nasal cavity, right nostril [36]: 3.3 ± 0.3&$ cm^3
Volume of the nasal cavity, left nostril [37]: 4.1 ± 0.1& cm^3
Volume of the nasal cavity, right nostril [37]: 3.8 ± 0.1& cm^3
Volume of the nasal cavity, left nostril [38]: 4.2 ± 0.3& cm^3
Volume of the nasal cavity, right nostril [38]: 4.2 ± 0.2& cm^3
Volume of the nasal cavity, left nostril [39]: 4.2 ± 0.1& cm^3
Volume of the nasal cavity, right nostril [39]: 4.5 ± 0.1& cm^3
Volume of the nasal cavity, left nostril [40]: 4.3 ± 0.1 cm^3
Volume of the nasal cavity, right nostril [40]: 4.5 ± 0.3 cm^3
Volume of the nasal cavity, left nostril [41]: 4.3 ± 0.2 cm^3
Volume of the nasal cavity, right nostril [41]: 4.2 ± 0.2 cm^3
Volume of the nasal cavity, left nostril [42]: 2.9 ± 0.1$ cm^3
Volume of the nasal cavity, right nostril [42]: 3.0 ± 0.2$ cm^3
Volume of the nasal cavity, left nostril [43]: 2.6 ± 0.1$ cm^3
Volume of the nasal cavity, right nostril [43]: 2.5 ± 0.1$ cm^3
Volume of the nasal cavity, left nostril [44]: 3.7 ± 0.3&$ cm^3
Volume of the nasal cavity, right nostril [44]: 3.8 ± 0.1&$ cm^3
Volume of the nasal cavity, left nostril [45]: 3.8 ± 0.2& cm^3
Volume of the nasal cavity, right nostril [45]: 3.7 ± 0.1&$ cm^3
Volume of the nasal cavity, left nostril [46]: 3.8 ± 0.1&$ cm^3
Volume of the nasal cavity, right nostril [46]: 3.8 ± 0.2&$ cm^3
Volume of the nasal cavity, left nostril [47]: 4.2 ± 0.3& cm^3
Volume of the nasal cavity, right nostril [47]: 4.2 ± 0.3& cm^3
Volume of the nasal cavity, left nostril [48]: 3.9 ± 0.2$ cm^3
Volume of the nasal cavity, right nostril [48]: 4.0 ± 0.3^ cm^3
Volume of the nasal cavity, left nostril [49]: 4.0 ± 0.1$ cm^3
Volume of the nasal cavity, right nostril [49]: 4.2 ± 0.3 cm^3
Volume of the nasal cavity, left nostril [50]: 4.5 ± 0.1 cm^3
Volume of the nasal cavity, right nostril [50]: 4.5 ± 0.3 cm^3
Tolerance (oral once daily for 14 days, dogs): not generated
duration of the effect (single oral administration, dogs): at least 6 hours
